Experimental data taken from ChEMBL document CHEMBL1149280, “Highly selective fluorescent analogue of the potent delta-opioid receptor antagonist Dmt-Tic” (J Med Chem, 2004).
pIC50: −log10 of the molar value. Where a SMILES comes first, the peptide text is derived from it.

Tests used:
Mu-type opioid receptor [1] = molecular target: Mu-type opioid receptor (Cavia porcellus, UniProt P97266); experiment: Agonistic activity at mu opioid receptor in guinea pig ileum assessed as inhibition of electrically evoked twitch; assay type: functional, tissue-based
Mu-type opioid receptor (Cavia porcellus, UniProt P97266), sequence (P97266 whole entry): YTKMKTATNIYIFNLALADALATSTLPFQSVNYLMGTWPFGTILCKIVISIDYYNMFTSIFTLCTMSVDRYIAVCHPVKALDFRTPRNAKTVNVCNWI

[2] = molecular target: Opioid receptors; mu & delta (Rattus norvegicus) (UniProt P33533+P33535); experiment: Selectivity of rat brain delta opioid receptor over rat brain mu opioid receptor
Opioid receptors; mu & delta (Rattus norvegicus), sequence (P33533 whole entry, looked up): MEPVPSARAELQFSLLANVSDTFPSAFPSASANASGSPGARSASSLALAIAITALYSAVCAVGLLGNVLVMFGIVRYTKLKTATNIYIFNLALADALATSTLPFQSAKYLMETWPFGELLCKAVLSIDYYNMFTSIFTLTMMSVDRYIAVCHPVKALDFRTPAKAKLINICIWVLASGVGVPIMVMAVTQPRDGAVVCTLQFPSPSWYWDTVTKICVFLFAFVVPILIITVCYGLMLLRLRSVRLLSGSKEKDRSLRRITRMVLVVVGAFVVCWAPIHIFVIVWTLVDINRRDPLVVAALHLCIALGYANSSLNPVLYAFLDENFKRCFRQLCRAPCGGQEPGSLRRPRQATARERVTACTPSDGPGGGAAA
Opioid receptors; mu & delta (Rattus norvegicus), sequence (P33535 whole entry, looked up): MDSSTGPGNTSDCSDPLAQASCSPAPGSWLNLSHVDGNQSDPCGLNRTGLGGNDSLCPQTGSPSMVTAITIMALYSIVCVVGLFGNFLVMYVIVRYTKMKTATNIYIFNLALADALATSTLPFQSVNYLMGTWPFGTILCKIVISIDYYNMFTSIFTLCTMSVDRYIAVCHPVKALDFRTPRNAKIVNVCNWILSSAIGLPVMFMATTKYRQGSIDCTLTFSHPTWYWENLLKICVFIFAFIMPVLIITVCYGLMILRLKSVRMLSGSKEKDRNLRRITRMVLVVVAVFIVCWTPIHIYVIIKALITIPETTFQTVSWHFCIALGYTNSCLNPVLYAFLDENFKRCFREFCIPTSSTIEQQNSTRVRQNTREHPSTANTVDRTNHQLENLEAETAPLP

[3] = molecular target: Delta-type opioid receptor (Mus musculus) (UniProt P32300); experiment: Antagonist activity at delta opioid receptor in mouse vas deferens assessed as effect on electrically evoked twitch; assay type: functional, tissue-based; settings: filed as antagonist
Delta-type opioid receptor (Mus musculus), sequence (P32300 whole entry): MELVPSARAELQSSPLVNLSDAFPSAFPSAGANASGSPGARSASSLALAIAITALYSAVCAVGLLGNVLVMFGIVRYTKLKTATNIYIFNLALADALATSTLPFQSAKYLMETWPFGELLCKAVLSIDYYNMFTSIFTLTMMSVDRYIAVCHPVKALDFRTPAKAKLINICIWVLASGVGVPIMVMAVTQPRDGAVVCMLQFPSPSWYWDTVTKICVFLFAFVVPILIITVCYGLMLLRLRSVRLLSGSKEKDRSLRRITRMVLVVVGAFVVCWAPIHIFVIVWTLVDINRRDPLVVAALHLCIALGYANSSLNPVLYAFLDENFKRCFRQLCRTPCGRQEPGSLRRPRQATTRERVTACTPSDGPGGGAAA

[4] = molecular target: Delta-type opioid receptor (Mus musculus, UniProt P32300); experiment: Agonistic activity at delta opioid receptor in mouse vas deferens assessed as inhibition of electrically evoked twitch; assay type: functional, tissue-based
Delta-type opioid receptor (Mus musculus, UniProt P32300), sequence (P32300 whole entry): as above

[5] = molecular target: Delta-type opioid receptor (Rattus norvegicus, UniProt P33533); experiment: Displacement of [3H]DPDPE from delta opioid receptor in rat brain synaptosomes P2 fraction; assay type: subcellular
Delta-type opioid receptor (Rattus norvegicus, UniProt P33533), sequence (P33533 whole entry): as the sequence (P33533 whole entry, looked up) above

Mu-type opioid receptor [6] = molecular target: Mu-type opioid receptor (Rattus norvegicus, UniProt P33535); experiment: Displacement of [3H]DAMGO from mu opioid receptor in rat brain synaptosomes P2 fraction; assay type: subcellular
Mu-type opioid receptor (Rattus norvegicus, UniProt P33535), sequence (P33535 whole entry): as the sequence (P33535 whole entry, looked up) above

Row | SMILES | pIC50 (Mu-type opioid receptor [1]) | Ratio Ki [2] | also measured
1 | Cc1cc(O)cc(C)c1C[C@H](N)C(=O)N1Cc2ccccc2C[C@H]1C(=O)N[C@@H](CCC(=O)O)C(=O)NCCCCCN | < 6.00 |  | 
2 | Cc1cc(O)cc(C)c1C[C@H](N)C(=O)N1Cc2ccccc2C[C@H]1C(=O)N[C@@H](CCC(=O)O)C(=O)NCCCCCNC(=S)Nc1ccc(-c2c3ccc(=O)cc-3oc3cc(O)ccc23)c(C(=O)O)c1 | < 6.00 |  | 
3 | Cc1cc(O)cc(C)c1C[C@H](N)C(=O)N1Cc2ccccc2CC1C(=O)N[C@@H](CCC(=O)O)C(=O)NCCCCCN (stereo not given in full) |  | 1700 | 
4 | Cc1cc(O)cc(C)c1C[C@H](N)C(=O)N1Cc2ccccc2CC1C(=O)N[C@@H](CCC(=O)O)C(=O)NCCCCCNC(=S)Nc1ccc(-c2c3ccc(=O)cc-3oc3cc(O)ccc23)c(C(=O)O)c1 (stereo not given in full) |  | 4370 | Activity [3]: Irreversible Antagonist
5 | Cc1cc(O)cc(C)c1C[C@H](N)C(=O)N1Cc2ccccc2C[C@H]1C(=O)N[C@@H](CCC(=O)O)C(N)=O (HELM PEPTIDE1{[Cc1cc(O)cc(C)c1C[C@H](N)C(=O)[*:2]].[Tic].E.[am]}$$$$V2.0) | < 6.00 | 22600 | IC50 [4]: 2.58 nM (agonist); Ki [5]: 0.06 nM (antagonist); Ki (Mu-type opioid receptor [6]): 1.36 µM (antagonist)
